{"source": "PubChem BioAssay AID1963446", "about": "(Molecular Pharmacology Branch, DTP, NCI, 2024)", "system": "993429-296-R-J1-PDC complex spheroid growth, percent test/control", "assay": "Anticancer human tumor 993429-296-R-J1-PDC patient-derived uterine sarcoma cell line growth inhibition [Asc]", "conditions": "for viability, T/C: stronger effect = lower value", "method_in_brief": "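Stromal components (HUVEC and hMSC) are co-assembled with the cancer cells into multicellular spheroids. Drugs are then added singly or paired, at concentrations falling by half-log increments from a clinically achievable maximum, capped at 10 microM without known Cmax.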", "note": "“And” between values parts separate entries of the source, which are not always exact repeats. Equal entries are not always repeated.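 Further: spheroids exposed to compounds for seven days.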", "data": [{"smiles": "CCN1C(C(=O)NC23CCC(C(=O)O)(CC2)CC3)C(c2cccc(Cl)c2F)C2(C(=O)Nc3cc(Cl)ccc32)C12CCCCC2", "note": "(stereo not given) + CNC(C)C(=O)NC1CN(S(=O)(=O)c2cccc(S(=O)(=O)N3CCC4CCC(C(=O)NC(c5ccccc5)c5ccccc5)N4C(=O)C(NC(=O)C(C)NC)C3)c2)CCC2CCC(C(=O)NC(c3ccccc3)c3ccccc3)N2C1=O", "values": [{"measurement": "IC50", "setting": "curve of first compound, second compound 0.01 µM", "result": "> 3000", "unit": "nM"}, {"measurement": "IC50", "setting": "curve of first compound, second compound 0.0316 µM", "result": "> 3000", "unit": "nM"}, {"measurement": "IC50", "setting": "curve of first compound, second compound 0.1 µM", "result": "> 3000", "unit": "nM"}, {"measurement": "IC50", "setting": "curve of first compound, second compound 0.316 µM", "result": "< 9.49", "unit": "nM"}, {"measurement": "IC50", "setting": "curve of first compound, second compound 1 µM", "result": "> 3000", "unit": "nM"}, {"measurement": "viability, T/C", "setting": "second compound 0.01 µM, first compound 0.00949 µM", "result": 66.7, "unit": "%"}, {"measurement": "viability, T/C", "setting": "second compound 0.01 µM, first compound 0.03 µM", "result": 61.1, "unit": "%"}, {"measurement": "viability, T/C", "setting": "second compound 0.01 µM, first compound 0.0949 µM", "result": 64, "unit": "%"}, {"measurement": "viability, T/C", "setting": "second compound 0.01 µM, first compound 0.3 µM", "result": 66.5, "unit": "%"}, {"measurement": "viability, T/C", "setting": "second compound 0.01 µM, first compound 0.949 µM", "result": 74.5, "unit": "%"}, {"measurement": "viability, T/C", "setting": "second compound 0.01 µM, first compound 3 µM", "result": 60, "unit": "%"}, {"measurement": "viability, T/C", "setting": "second compound 0.0316 µM, first compound 0.00949 µM", "result": 66.2, "unit": "%"}, {"measurement": "viability, T/C", "setting": "second compound 0.0316 µM, first compound 0.03 µM", "result": 61.2, "unit": "%"}, {"measurement": "viability, T/C", "setting": "second compound 0.0316 µM, first compound 0.0949 µM", "result": 55, "unit": "%"}, {"measurement": "viability, T/C", "setting": "second compound 0.0316 µM, first compound 0.3 µM", "result": 54.5, "unit": "%"}, {"measurement": "viability, T/C", "setting": "second compound 0.0316 µM, first compound 0.949 µM", "result": 68.5, "unit": "%"}, {"measurement": "viability, T/C", "setting": "second compound 0.0316 µM, first compound 3 µM", "result": 61.1, "unit": "%"}, {"measurement": "viability, T/C", "setting": "second compound 0.1 µM, first compound 0.00949 µM", "result": 58.9, "unit": "%"}, {"measurement": "viability, T/C", "setting": "second compound 0.1 µM, first compound 0.03 µM", "result": 50, "unit": "%"}, {"measurement": "viability, T/C", "setting": "second compound 0.1 µM, first compound 0.0949 µM", "result": 56, "unit": "%"}, {"measurement": "viability, T/C", "setting": "second compound 0.1 µM, first compound 0.3 µM", "result": 48.4, "unit": "%"}, {"measurement": "viability, T/C", "setting": "second compound 0.1 µM, first compound 0.949 µM", "result": 60.1, "unit": "%"}, {"measurement": "viability, T/C", "setting": "second compound 0.1 µM, first compound 3 µM", "result": 64, "unit": "%"}, {"measurement": "viability, T/C", "setting": "second compound 0.316 µM, first compound 0.00949 µM", "result": 48.9, "unit": "%"}, {"measurement": "viability, T/C", "setting": "second compound 0.316 µM, first compound 0.03 µM", "result": 55.7, "unit": "%"}, {"measurement": "viability, T/C", "setting": "second compound 0.316 µM, first compound 0.0949 µM", "result": 53, "unit": "%"}, {"measurement": "viability, T/C", "setting": "second compound 0.316 µM, first compound 0.3 µM", "result": 60.8, "unit": "%"}, {"measurement": "viability, T/C", "setting": "second compound 0.316 µM, first compound 0.949 µM", "result": 68.7, "unit": "%"}, {"measurement": "viability, T/C", "setting": "second compound 0.316 µM, first compound 3 µM", "result": 58.1, "unit": "%"}, {"measurement": "viability, T/C", "setting": "second compound 1 µM, first compound 0.00949 µM", "result": 55.3, "unit": "%"}, {"measurement": "viability, T/C", "setting": "second compound 1 µM, first compound 0.03 µM", "result": 59.9, "unit": "%"}, {"measurement": "viability, T/C", "setting": "second compound 1 µM, first compound 0.0949 µM", "result": 45.4, "unit": "%"}, {"measurement": "viability, T/C", "setting": "second compound 1 µM, first compound 0.3 µM", "result": 40.9, "unit": "%"}, {"measurement": "viability, T/C", "setting": "second compound 1 µM, first compound 0.949 µM", "result": 51.8, "unit": "%"}, {"measurement": "viability, T/C", "setting": "second compound 1 µM, first compound 3 µM", "result": 63.1, "unit": "%"}]}, {"smiles": "CCN1C(C(=O)NC23CCC(C(=O)O)(CC2)CC3)C(c2cccc(Cl)c2F)C2(C(=O)Nc3cc(Cl)ccc32)C12CCCCC2", "note": "(stereo not given)", "values": [{"measurement": "viability, T/C", "setting": "compound 0.00949 µM", "result": "92.7% and 92.5%"}, {"measurement": "IC50", "setting": "compound alone, run of 09/27/2022", "result": "> 3000", "unit": "nM"}, {"measurement": "IC50", "setting": "curve of compound", "result": "> 3000", "unit": "nM"}]}, {"smiles": "C=C(F)C(=O)N1CCN(c2nc(OCC3CCCN3C)nc3c2CCN(c2cccc4cccc(Cl)c24)C3)CC1CC#N", "note": "(stereo not given)", "values": [{"measurement": "viability, T/C", "setting": "compound 0.0316 µM", "result": "85.9% and 98.6% and 98.2%"}, {"measurement": "viability, T/C", "setting": "compound 0.1 µM", "result": "93.5% and 103% and 95.2%"}, {"measurement": "viability, T/C", "setting": "compound 0.316 µM", "result": "82.5% and 88.7% and 91.7%"}, {"measurement": "viability, T/C", "setting": "compound 1 µM", "result": "43.8% and 63.6% and 99.8%"}, {"measurement": "viability, T/C", "setting": "compound 3.16 µM", "result": "6.98% and 7.87% and 29.6%"}, {"measurement": "viability, T/C", "setting": "compound 10 µM", "result": "0.4% and 0.19% and 0.21%"}, {"measurement": "IC50", "setting": "curve of compound", "result": "836 nM and 1300 nM and 2220 nM"}]}]}
